Earlier results on 8 molecules are cited in article PMC9660540 (Clinical Cancer Research, 2022).

Where two headings read alike, the source gives them in different places.

Data set [1] has as its system advanced NSCLC. The settings on record: in combination with carboplatin, pemetrexed, and pembrolizumab; of 6 evaluable patients; ref [47]; cited from earlier work.
For data set [2] the following is noted: phase I trials; ref [45]; cited from earlier work.
For data set [3] the following is noted: cited from earlier work.
Data set [4] concerns mCRPC. As to conditions: cited from earlier work; for OS benefit: phase III clinical trials, ref [35–37].
Data set [5] concerns renal cell carcinoma (RCC). The settings on record: pretreated patients with RCC; ref [43]; cited from earlier work.

As for `Cc1c(C#N)cccc1-c1cc(-c2cn(Cc3cccc(C(C)(C)O)n3)nn2)nc(N)n1` [AB928], the “Patients with a PR” value in data set [1] is 3 patients. For `C[S@+]([O-])CCOc1cc(N2CCN(CCn3c(=O)sc4c3nc(N)n3nc(-c5ccco5)nc43)CC2)c(F)cc1F` [EOS100850], in data set [2], the “Best response of SD” value is recorded as 6 patients. In addition, in data set [3] (up to doses of 160 mg twice daily, ref [42, 45]), the “Grade ≥3 treatment-related AEs” value is “no grade ≥3 treatment-related AEs”. Consider `Nc1nc(-n2cccn2)nc(-n2cccn2)c1Br` [NIR178], for which, in data set [3] (monotherapy, at the highest doses (480 and 640 mg), ref [42, 44]), the “Grade ≥3 treatment-related AEs” value is “nausea, increased AST, ALT, and lipase levels, and pneumonitis”. With `CO[C@H]1C(=O)[C@]2(C)[C@@H](OC)C[C@H]3OC[C@@]3(OC(C)=O)[C@H]2[C@H](OC(=O)c2ccccc2)[C@]2(O)C[C@H](OC(=O)[C@H](O)[C@@H](NC(=O)OC(C)(C)C)c3ccccc3)C(C)=C1C2(C)C` [cabazitaxel], the “Median PFS” value in data set [4] (later-line mCRPC, ref [48]) is recorded as 3.9 months. For `Cc1ccc(-c2nc(N)nc3c2nnn3Cc2cccc(CO[C@H]3CCOC3)n2)o1` [ciforadenant], the “Most common treatment-related AEs” value in data set [3] (ref [42, 43]) is “fatigue, nausea, and pruritus”. In data set [4] (mCRPC, with or without atezolizumab, of 33 patients, ref [46]), the “Patients with tumor regression” value was 5 patients. For the same molecule, the “Patients with a PR” value in data set [5] was 3%.

For the molecule atezolizumab: anti–PD-L1 antibody, the OS benefit result in data set [4] (mCRPC) is “failed to demonstrate an OS benefit”. Regarding “durvalumab: human immunoglobulin G1 monoclonal antibody that inhibits binding of PD-L1 to PD-1 and CD80”, the “Grade 3−4 treatment-related events” value in data set [3] (durvalumab monotherapy, PACIFIC study, ref [33]) was 11.8%. As to ipilimumab: anti–CTLA-4 antibody, the OS benefit result in data set [4] (mCRPC) is recorded as “failed to demonstrate an OS benefit”.
